Measurements as given in publication PMC11988454, “Discovery of synthetic small molecules targeting the central regulator of Salmonella pathogenicity” (Science Advances, 2025).

Assays:
male ICR mice = assay: Maximum tolerated dose (MTD) experiment, oral
Experimental: C26 was formulated in 5% Tween 20 (v/v), 50% lecithin (from soy bean: 40 mg in 800 μl of distilled water), and 45% PBS at 0.6, 2, and 6 mg/ml for oral administration. A dosing volume of 5 ml/kg was applied. C26 was administered orally to groups of three male Institute of Cancer Research (ICR) mice (23 ± 3 g) at an initiating dose of 3 mg/kg in an MTD setup. The animals received an initial dose of 3 mg/kg. If the animals survived for 72 hours, the group (10 mg/kg) was tested. If the animals survived for 72 additional hours, the group (30 mg/kg) was tested. Experiments were performed by Pharmacology Discovery Services Taiwan Ltd., in general accordance with the “Guide for the Care and Use of Laboratory Animals: Eighth Edition” (National Academies Press, Washington, DC, 2011). The animal care and protocol were reviewed and approved by the Institutional Animal Care and Use Committee (IACUC) at Pharmacology Discovery Services Taiwan Ltd.

[1] = test system: T3SS-1 (SipA-HiBiT injection into HeLa cells); assay: SipA-HiBiT injection assay (split NanoLuc HiBiT/LgBiT); format: cell-based, S. Typhimurium
Experimental: SipA injection assay was performed using the split-Nanoluc (HiBiT/LgBiT) system as described previously ([37], [38]). In brief, NanoLuc is split into two parts: LgBiT, comprising 10 of the 11 β strands of the luciferase, and HiBiT, a short peptide with high affinity to LgBiT, contributing the missing β strand to make a functional luciferase. S. Typhimurium strains expressing SipA-HiBiT were grown in LB supplemented with 0.3 M NaCl and either compound at different concentrations or 1% (v/v) DMSO. Cultures were incubated at 37°C with shaking at 180 rpm until an OD600 of 0.9 was reached. Bacteria were then pelleted and washed twice with Hanks’ balanced salt solution (HBSS). The bacterial suspension was diluted to obtain a multiplicity of infection (MOI) of 50 and then used to infect the LgBiT-expressing HeLa cell. Luminescence was measured using a Tecan Sparc Multimode reader.

[2] = test system: SPI-4 encoded T1SS (SiiE); assay: SiiE-HiBiT cell surface retention assay; format: cell-based, S. Typhimurium
Experimental: HiBiT was inserted chromosomally into SiiE at position K5411, using the suicide plasmid pMIB8021 (pSB890-siiE::K5411HiBiT). Bacteria were grown for 5 hours under SPI-4–inducing conditions (LB supplemented with 0.3 M NaCl). OD units of 0.5 were harvested at 10,000g for 2 min at 4°C. Cell pellets were washed twice with cold PBS and then resuspended to a final concentration of 0.5 OD units. Twenty-five microliters from the bacterial suspension was transferred into a 384-well plate. The Nano-Glo HiBiT Extracellular Buffer and corresponding substrate were prepared according to the manufacturer’s instructions. Twenty-five microliters of the Nano-Glo HiBiT Extracellular buffer-substrate mix was added to each sample and then incubated at r.t. for 10 min. Luminescence was measured with a Tecan Spark microplate reader.

[3] = test system: S. Typhimurium invasion of MDCK cells; assay: Invasion assay into MDCK cells; format: cell-based; details: C26 100 μM, MOI 5; DMSO control 6.85
Experimental: MDCK (NBL-2) cells were seeded in a 24-well plate at a density of 10^5 cells per well in 1 ml of MEM (Gibco) and grown for 5 to 6 days, to allow polarization. Cells were washed every 2 days with fresh medium. After 5 days, each well contained ~1.8 × 10^6 MDCK cells. Bacteria were grown as for the invasion assay of HeLa cells and diluted to obtain an MOI of 5. The plate was centrifuged for 3 min at 300g to synchronize the infection and then incubated for 25 min at 37°C and 5% (v/v) CO2 to allow Salmonella invasion into MDCK cells. The quantification of invasiveness was carried out as described above for HeLa cells.

HilD mutants = assay: Alanine scan, plasmid-based whole-cell PhilA activation assay; design: species or system S. Typhimurium; details: C26 100 μM
Experimental: A plasmid-based assay in a ΔSPI-1 background strain was developed to facilitate the introduction of point mutations in hilD. The Rha cassette (rhaS, rhaR, and Prha) was first deleted from the pT10 backbone ([67]). The fragment PhilD-hilD-PhilA-sfGFP was then inserted upstream of the terminator rrnB. hilD was then deleted from the resulting plasmid to serve as a negative control. Site-directed mutagenesis was performed using KOD polymerase (Novagen). The cell-based fluorescence assay was performed as described above. Statistical analysis was performed by applying a first Bonferroni’s multiple comparisons test to compare treated and untreated conditions within each strain (shown in Fig. 4E) and a second same test to compare the treated mutants to the treated WT condition. The absence of significance in both tests corresponds to mutations inactivating HilD. Significance in the first but not the second test corresponds to a phenotype similar to that of the WT.

HeLa cells = assay: Cytotoxicity, CellTox Green Cytotoxicity Assay, HeLa; format: cell-based; details: exposure time 18 h
Experimental: In vitro toxicity of compound C26 was assessed in HeLa cells (ATCC CCL-2) using the ApoTox-Glo Triplex Assay and in macrophages RAW 264.7-LgBiT using the CellTox Green Cytotoxicity Assay (Promega, USA) according to the manufacturer’s instructions. The screening of in vitro toxicity of the compound analogs was performed with the CellTox Green Cytotoxicity Assay (Promega, USA) according to the manufacturer’s instructions. Cells (10^4 cells per well) were seeded into a 96-well plate and incubated for 24 hours at 37°C, 5% (v/v) CO2. Cells were then treated with the compound at different concentrations or 1% (v/v) DMSO in Dulbecco’s modified Eagle’s medium (DMEM) without phenol red at the desired exposure time. Fluorescence intensity was measured with a TECAN Spark microplate reader. Cytotoxicity [relative fluorescence units (RFU)] and viability (RFU) values were plotted to calculate the TC50 using GraphPad Prism 10.1.1.
Compound concentration (µM) […]
in vitro cytotoxicity of C26 and analogs. Cytotoxicity assessed with CellTox™ Green Cytotoxicity Assay with an exposure time of 18 h. N = 3 biological replicates. Data were plotted and TC50 values were generated with GraphPad Prism 10.1.1.
(1 picture or pasted object on this page, not shown here)

Structure (SMILES): CN(CC(=O)NCc1ccc2c(c1)OCO2)Cc1ccc(Br)s1 [C26, N-(benzo[d][1,3]dioxol-5-ylmethyl)-2-{[(5-bromothiophen-2-yl)methyl](methyl)amino}acetamide]
- Toxicity (death / test) (male ICR mice; PO 3 mg/kg, 1 h): 0/3
- Toxicity (death / test) (male ICR mice; PO 3 mg/kg, 2 h): 0/3
- Toxicity (death / test) (male ICR mice; PO 3 mg/kg, 24 h): 0/3
- Toxicity (death / test) (male ICR mice; PO 3 mg/kg, 48 h): 0/3
- Toxicity (death / test) (male ICR mice; PO 3 mg/kg, 72 h): 0/3
- Toxicity (death / test) (male ICR mice; PO 10 mg/kg, 1 h): 0/3
- Toxicity (death / test) (male ICR mice; PO 10 mg/kg, 2 h): 0/3
- Toxicity (death / test) (male ICR mice; PO 10 mg/kg, 24 h): 0/3
- Toxicity (death / test) (male ICR mice; PO 10 mg/kg, 48 h): 0/3
- Toxicity (death / test) (male ICR mice; PO 10 mg/kg, 72 h): 0/3
- Toxicity (death / test) (male ICR mice; PO 30 mg/kg, 1 h): 0/3
- Toxicity (death / test) (male ICR mice; PO 30 mg/kg, 2 h): 0/3
- Toxicity (death / test) (male ICR mice; PO 30 mg/kg, 24 h): 0/3
- Toxicity (death / test) (male ICR mice; PO 30 mg/kg, 48 h): 0/3
- Toxicity (death / test) (male ICR mice; PO 30 mg/kg, 72 h): 0/3
- abnormalities at termination (male ICR mice; mouse, in vivo): no notable abnormalities
- Body weight (g) 72 h (male ICR mice; mouse, in vivo, po, 3 mg/kg): 29 g
- Body weight (g) Pre-dose (male ICR mice; mouse, in vivo, po, 10 mg/kg): 25 g
- mortality and adverse effects (male ICR mice; oral 3, 10 and 30 mg/kg, mice): Neither mortality nor notable adverse effects
- residual SipA injection ([1]; C26 100 μM added to bacterial culture, 1 hour postinfection, MOI 50): 11%
- SipA injection, % of the untreated bacteria ([1]; C26 100 μM only in infection inoculum, 1 hour postinfection, MOI 50): 48%
- SipA injection into HeLa cells over a 5-hour infection time ([1]; C26 added to bacterial culture): dose-dependent decrease
- SiiE-HiBiT retained on the bacterial cell surface [2]: reduced in a dose-dependent manner
- Invasion of MDCK cells (%), of the original inoculum [3]: 1.6%
- sensitivity of HilD I42A, I100A, N260A, K264A to C26 (HilD mutants): partial loss of sensitivity
- sensitivity of HilD L45A, Y46A, F98A, E102A, Y212A to C26 (HilD mutants): full loss of sensitivity
- TC50 cytotoxicity (HeLa cells): > 100 µM
